Measurements from patent US6610689B2, “HIV protease inhibitors based on amino acid derivatives” (priority 2001, dated 2003).
Read-outs that look alike come from different tables or passages of the source.

Biological target: T1, HIV protease (Human immunodeficiency virus type 1 group M subtype B, UniProt P04585)
T1 construct: A third viral enzyme known as protease then cleaves the polyproteins
Experiment: Enzymatic Assay for Determining the Inhibition Constant (Ki) of Synthetic Compounds Targeting the HIV Protease (fluorometric FRET assay)
Assay type: biochemical
Procedure, shortened: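 Ki obtained via the Henderson equation from enzyme velocities with and without compound, accounting for substrate concentration and Km. Activity followed by FRET fluorescence from cleavage of a substrate flanked by EDANS donor and DABCYL acceptor.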

[1] = Table 1, compounds of formula I, read-out: Ki (anti-protease activity)
[2] = Anti-protease activity of Ne-amino acid substituted L-lysine derivatives and analogs of formula I, read-out: Ki

CC(C)COC(=O)N[C@@H](Cc1c[nH]c2ccccc12)C(=O)NCCCC[C@@H](CO)N(CC(C)C)S(=O)(=O)c1ccc(N)cc1 [Example 193, (2S,2′S) 2-N-(4-Aminobenzenesulfonyl)-2-N-isobutyl-6-N-(N′α-isobutoxycarbonyl-S-tryptophanyl)-2,6-diaminohexanol]
Ki: 4.1 nM

CC(C)CN([C@H](CO)CCCCNC(=O)[C@H](Cc1ccccc1)NS(=O)(=O)c1ccc([N+](=O)[O-])cc1)S(=O)(=O)c1ccc(N)cc1 [Example 194, (2S,2′S) 2-N-(4-Aminobenzenesulfonyl)-2-N-isobutyl-6-N-[N′α-(4-nitrobenzenesulfonyl)-S-phenylalanyl]-2,6-diaminohexanol]
Ki: 85 nM

CC(C)CN([C@H](CO)CCCCNC(=O)[C@H](Cc1ccccc1)NS(=O)(=O)c1ccc(N)cc1)S(=O)(=O)c1ccc(N)cc1 [Example 195, (2S,2′S) 2-N-(4-Aminobenzenesulfonyl)-2-N-isobutyl-6-N-[N′α-(4-aminobenzenesulfonyl)-S-phenylalanyl]-2,6-diaminohexanol]
Ki: 20 nM

COc1ccc(NC(=O)N[C@@H](Cc2ccccc2)C(=O)NCCCC[C@@H](C(=O)O)N(CC(C)C)S(=O)(=O)c2ccc(C)cc2)cc1 [Example 196, Nα-Isobutyl-Nα-(4-methylbenzenesulfonyl)-Nε-[N′α-(4-methoxyanilinecarbonyl)-L-phenylalanyl]-L-lysine]
Ki: 0.5 nM

Cc1ccc(S(=O)(=O)N(CC(C)C)[C@@H](CCCCNC(=O)[C@H](Cc2ccccc2)NC(=O)N2CCCC2)C(=O)O)cc1 [Example 197, Nα-Isobutyl-Nα-(4-methylbenzenesulfonyl)-Nε-(N′α-pyrrolidinecarbonyl-L-phenylalanyl)-L-lysine]
Ki: 1.7 nM

CNC(=O)N[C@@H](Cc1ccccc1)C(=O)NCCCC[C@@H](C(=O)O)N(CC(C)C)S(=O)(=O)c1ccc(C)cc1 [Example 198, Nα-Isobutyl-Nα-(4-methylbenzenesulfonyl)-Nε-(N′α-methylaminocarbonyl-L-phenylalanyl)-L-lysine]
Ki: 1.1 nM

Cc1ccc(S(=O)(=O)N(CC(C)C)[C@@H](CCCCNC(=O)[C@H](Cc2ccccc2)NC(=O)NCCO)C(=O)O)cc1 [Example 199, Nα-Isobutyl-Nα-(4-methylbenzenesulfonyl)-Nε-(N′α-ethanolaminocarbonyl-L-phenylalanyl)-L-lysine]
Ki: 2.2 nM

Cc1ccc(S(=O)(=O)N[C@@H](Cc2ccccc2)C(=O)NCCCC[C@@H](C(=O)O)N(CC(C)C)S(=O)(=O)c2ccccc2)cc1 [Example 200, Nα-Benzenesulfonyl-Nα-isobutyl-Nε-[N′α-(4-methylbenzenesulfonyl)-L-phenylalanyl]-L-lysine]
Ki: 31 nM

Cc1ccc(S(=O)(=O)N[C@@H](Cc2ccccc2)C(=O)NCCCC[C@@H](C(=O)O)N(CC(C)C)S(=O)(=O)c2ccc(N)cc2)cc1 [Example 201, Nα-(4-Aminobenzenesulfonyl)-Nα-isobutyl-Nε-[N′α-(4-methylbenzenesulfonyl)-L-phenylalanyl]-L-lysine]
Ki: 4.1 nM

(2S,2′S) 2-N-Isobutyl-2-N-(4-methylbenzenesulfonyl)-6-N-(N′α-tert-butoxycarbonyl-S-4-thiazolylalanyl)-2,6-diaminohexanol [Example 137]
Ki [1]: 96 nM

Nα-Isobutyl-Nα-(4-methylbenzenesulfonyl)-Nε-(N′α-benzylglycyl)-L-lysine [Example 109]
Ki [1]: > 300 nM

Nα-Isobutyl-Nα-(4-methylbenzenesulfonyl)-Nε-[N′α-(4-bromobenzenesulfonyl)-L-phenylalanyl]-L-lysine [Example 20]
Ki [2]: 19 nM

Nα-Isobutyl-Nα-(4-methylbenzenesulfonyl)-Nε-[N′α-(4-methylbenzenesulfonyl)-L-phenylalanyl-N-cyanoamidine]-L-lysine [Example 98]
Ki [2]: 5.1 nM
